Laboratory results published in publication PMC9503133, “In Vitro Release, Mucosal Permeation and Deposition of Cannabidiol from Liquisolid Systems: The Influence of Liquid Vehicles” (Pharmaceutics, 2022).
Several values for one entry are separate records, joined by “and”; a condition that tells them apart may be missing. Identical values can stand only once. Like-named read-outs stand apart in the source and are kept apart here. Marks after values point to notes of the source that are not given here.

Key:
[1] = CBD solubility in liquid vehicles (excess CBD, shaking 24 h, HPLC); assay type: physicochemical
Protocol: The solubility of CBD in the investigated liquids was examined by adding the excess mass of CBD into 1 g of each test liquid in a test tube. The mixture was sonicated (1 h) using an ultrasonicator (Model LUC-405, Daihan Labtech Co., Ltd., Namyangju-si, Korea) and agitated constantly (37 ± 0.5 °C, 24 h) using a shaking water bath (Model LSB-030S, Daihan Labtech Co., Ltd., Namyangju-si, Korea), and the supernatant was filtered through a 0.45 μm syringe filter. The obtained filtrate was weighed, diluted and quantified by HPLC assay. The CBD solubility in the terms of the mg of CBD per g of liquid was calculated.
The amount of CBD was assessed using a modified HPLC method. An Agilent series 1260 combined with an Agilent ZORBAX Eclipse Plus column (C18, 100 × 4.6 mm, 3.5 μm) (Agilent Technologies, Inc., Santa Clara, CA, USA.) was used. The chromatographic separation was attained in 10 min using an isocratic protocol with a mixture of water:acetonitrile (30:70 v/v) comprising 0.1% formic acid set at a 1.5 mL/min flow rate. The injection volume was 20 µL. The column temperature was set at 45 °C, while the UV detector was set to 220 nm.

[2] = design: method as in PMID 34774694, PMID 32882367; conditions: ref [3],[4]; cited from earlier work
[3] = cited from earlier work

SMILES: C=C(C)[C@@H]1CCC(C)=C[C@H]1c1c(O)cc(CCCCC)cc1O [CBD, Cannabidiol]
- CBD Solubility ([1]; in CM, 37 ± 0.5 °C): 386.77 ± 48.85 ^b mg/g
- CBD Solubility ([1]; in DEGEE, 37 ± 0.5 °C): 579.46 ± 11.79 ^a mg/g
- CBD Solubility ([1]; in EtOH, 37 ± 0.5 °C): >1000 mg/g
- CBD Solubility ([1]; in OM, 37 ± 0.5 °C): 540.31 ± 4.59 ^a mg/g
- CBD Solubility ([1]; in P20, 37 ± 0.5 °C): 261.73 ± 39.33 ^c mg/g
- CBD Solubility ([1]; in PEG, 37 ± 0.5 °C): 342.18 ± 49.90 ^b mg/g
- CBD Solubility ([1]; in PG, 37 ± 0.5 °C): 521.04 ± 55.42 ^a mg/g
- CBD Solubility ([1]; in glycerin, 37 ± 0.5 °C): 0.09 ± 0.03 ^d mg/g
- solubility at 24 h ([1]; simulated saliva fluid (SSF), simulated saliva fluid pH 6.8, read-out: solubility of CBD in pH 6.8 SSF): < 5 µg/mL
- solubility at 24 h ([1]; water, converted with the specific gravity of water, read-out: CBD solubility in water): < 5 µg/mL
- calculated log n-octanol–water partition coefficient (Kow) [2]: 8 and ~ 8
- solubility of CBD in 50% EtOH ([3]; 50% EtOH receiver medium, ref Casirahi et al. [44]): 2200 ± 100 µg/mL
- water solubility ([3]; ref [3],[4]): 5 ppm
